Laboratory results taken from ChEMBL document CHEMBL1649303, “Effects of subinhibitory concentrations of antibiotics on colonization factor expression by moxifloxacin-susceptible and moxifloxacin-resistant Clostridium difficile strains” (2009).
≈ marks a conversion by molar mass, not a printed value.

Legend:
Assay type in all cases: functional
[1] = tested on: Clostridioides difficile; assay: Antimicrobial activity against Clostridium difficile CD196 by broth dilution method
[2] = tested on: Clostridioides difficile; assay: Antimicrobial activity against Clostridium difficile ATCC 43603 by broth dilution method
[3] = tested on: Clostridioides difficile; assay: Antimicrobial activity against Clostridium difficile CD07-259 by broth dilution method
[4] = tested on: Clostridioides difficile; assay: Antimicrobial activity against Clostridium difficile 6269 by broth dilution method
[5] = tested on: Clostridioides difficile; assay: Antimicrobial activity against Clostridium difficile 6425 by broth dilution method
[6] = tested on: Clostridioides difficile; assay: Upregulation of cwp84 gene expression in Clostridium difficile ATCC 43603 at 0.5 times MIC by real-time PCR analysis relative to control
[7] = tested on: Clostridioides difficile; assay: Upregulation of slpA gene expression in Clostridium difficile ATCC 43603 at 0.5 times MIC by real-time PCR analysis relative to control
[8] = tested on: Clostridioides difficile; assay: Upregulation of fbp68 gene expression in Clostridium difficile ATCC 43603 at 0.5 times MIC by real-time PCR analysis relative to control
[9] = tested on: Clostridioides difficile; assay: Upregulation of cwp84 gene expression in Clostridium difficile ATCC 43603-M1 at 0.5 times MIC by real-time PCR analysis relative to control
[10] = tested on: Clostridioides difficile; assay: Upregulation of slpA gene expression in Clostridium difficile ATCC 43603-M1 at 0.5 times MIC by real-time PCR analysis relative to control
[11] = tested on: Clostridioides difficile; assay: Upregulation of fbp68 gene expression in Clostridium difficile ATCC 43603-M1 at 0.5 times MIC by real-time PCR analysis relative to control
[12] = tested on: Clostridioides difficile; assay: Induction of Cwp84 protease expression in Clostridium difficile 6425 at 0.5 times MIC by immunoblot analysis
[13] = tested on: Clostridioides difficile; assay: Induction of Cwp84 protease expression in Clostridium difficile ATCC 43603-M1 at 0.5 times MIC by immunoblot analysis
[14] = tested on: Clostridioides difficile; assay: Antimicrobial activity against Clostridium difficile ATCC 43603-M1 by broth dilution method
[15] = Antimicrobial activity against Clostridium difficile CD196 M1 by broth dilution method; conditions: Clostridioides difficile
[16] = tested on: Clostridioides difficile; assay: Upregulation of slpA gene expression in Clostridium difficile 6425 at 0.5 times MIC by real-time PCR analysis relative to control
[17] = tested on: Clostridioides difficile; assay: Upregulation of slpA gene expression in Clostridium difficile CD07-259 at 0.5 times MIC by real-time PCR analysis relative to control

| SMILES | MIC [1] | MIC [2] | MIC [3] | MIC [4] | MIC [5] | fold change (FC) [6] | fold change (FC) [7] | fold change (FC) [8] | fold change (FC) [9] | fold change (FC) [10] | fold change (FC) [11] | Activity [12] | Activity [13] | MIC [14] | MIC [15] | fold change (FC) [16] | fold change (FC) [17] |
| --- | --- | --- | --- | --- | --- | --- | --- | --- | --- | --- | --- | --- | --- | --- | --- | --- | --- |
| CC1(C)S[C@@H]2[C@H](NC(=O)[C@H](N)c3ccccc3)C(=O)N2[C@H]1C(=O)O [AMPICILLIN] | 8 µg/mL (≈ 22.9 µM) | 2 µg/mL (≈ 5.72 µM) | 4 µg/mL (≈ 11.4 µM) | 2 µg/mL (≈ 5.72 µM) | 4 µg/mL (≈ 11.4 µM) | – | – | – | – | – | – | – | – | – | – | – | – |
| CCC[C@@H]1C[C@@H](C(=O)N[C@@H]([C@H]2O[C@H](SC)[C@H](O)[C@@H](O)[C@H]2O)[C@H](C)Cl)N(C)C1 [CLINDAMYCIN] | 128 µg/mL (≈ 301 µM) | 4 µg/mL (≈ 9.41 µM) | 4 µg/mL (≈ 9.41 µM) | 1 µg/mL (≈ 2.35 µM) | 128 µg/mL (≈ 301 µM) | – | – | – | – | – | – | – | – | – | – | – | – |
| CC1COc2c(N3CCN(C)CC3)c(F)cc3c(=O)c(C(=O)O)cn1c23 (configuration not stated) [OFLOXACIN] | 8 µg/mL (≈ 22.1 µM) | 8 µg/mL (≈ 22.1 µM) | 256 µg/mL (≈ 708 µM) | 32 µg/mL (≈ 88.6 µM) | 256 µg/mL (≈ 708 µM) | 3.2 | 3.9 | 4.8 | 67.4 | 32.8 | 2.1 | 130% | 25% | 256 µg/mL (≈ 708 µM) | 128 µg/mL (≈ 354 µM) | 4 | 22 |
